Reference: paper PMC5053523, “In Vitro Antibacterial Activity of Rhodanine Derivatives against Pathogenic Clinical Isolates” (PLoS ONE, 2016)
Converted amounts (≈) assume the structure as drawn. Where two headings read alike, the source gives them in different places.

Key:
[1] = test system: methicillin-resistant Staphylococcus aureus (MRSA); test: Broth microdilution MIC/MBC, MRSA; format: cell-based
[2] = test system: vancomycin resistant enterococci (VRE) E. faecalis; test: Broth microdilution MIC/MBC, VRE E. faecalis; format: cell-based; conditions: for MIC: read-out: MIC
Acinetobacter baumannii = test: MIC with/without PMBN, Acinetobacter baumannii; format: cell-based
In short: (§1)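 Gram-negative MICs were determined for rhodanines alongside control antibiotics, each combined with sub-inhibitory colistin or PMBN. Further testing used the efflux-deficient E. coli SM1411ΔacrAB, missing the AcrAB multidrug pump.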

[3] = test system: Vancomycin Resistant Staphylococcus aureus (VRSA); test: Broth microdilution MIC/MBC, VRSA; format: cell-based; conditions: for MBC / MIC: VRSA
[4] = test system: vancomycin resistant enterococci (VRE) E. faecium; test: Broth microdilution MIC/MBC, VRE E. faecium; format: cell-based; conditions: for MIC: read-out: MIC
Escherichia coli O157:H7 = test: MIC with/without sub-MIC colistin, Escherichia coli O157:H7; format: cell-based
In short: as §1

Bacillus anthracis = test: microbe, parasite or virus in culture; format: cell-based
Candida albicans = test: MIC against Candida albicans; format: cell-based; conditions: table prints none, read-out: MIC
[5] = test system: Staphylococcus epidermidis; test: Broth microdilution MIC, Staphylococcus epidermidis; format: cell-based
Klebsiella pneumoniae = test: MIC with/without PMBN, Klebsiella pneumoniae; format: cell-based
In short: as §1

K. pneumoniae = test: Broth microdilution MIC, K. pneumoniae; format: cell-based
[6] = test system: established methicillin-resistant S. epidermidis biofilm (ATCC 35984, NRS 101); test: Microtiter dish biofilm eradication assay (crystal violet); format: cell-based, Staphylococcus epidermidis; conditions: 24 h, relative to untreated wells
Procedure: We used S. epidermidis ATCC 35984 (NRS 101), a high-slime producer isolated in septicemic patients, with colonized intravascular catheters from Tennessee, USA [10]. This strain is a multi-drug resistant strain, showing resistance to methicillin, erythromycin, kanamycin, gentamicin, clindamycin and trimethoprim. Briefly, an overnight culture of biofilm—producing MRSE was diluted 1:100 in a fresh medium containing 1% glucose in a 96-well tissue-culture treated plate. Bacteria were incubated at 37°C for 24 h to permit the formation of an adherent biofilm. The medium was removed and the biofilm was washed with PBS. Antibacterial drugs (vancomycin and linezolid) and rhodanine 2, at indicated concentration, were added and incubated again at 37°C for 24 h. Plates were washed again and biofilms were stained with 0.1% (wt/vol) crystal violet. Plates were washed with PBS, air-dried and biofilm mass was dissolved using 95% ethanol. The intensity of crystal violet was measured using a micro plate reader (SpectraMax i3x; Molecular Devices, Sunnyvale, CA, USA). Data are presented as the percent biofilm mass reduction in treated groups in relation to untreated wells.

[7] = E. faecalis NR31972 Strain SF 28073
[8] = E. faecium HM 968 Strain ERV102
[9] = E. faecium NR31914 Strain E0120
[10] = E. faecium Patient #1–1 NR-31903

Q: Which results are given for `O=C(O)[C@H](Cc1ccccc1)N1C(=O)/C(=C/c2cccc(-c3ccc(Cl)c(Cl)c3)c2)SC1=S` [Rh 2]?
A: MIC50 ([1]; 11 MRSA strains): 4 µM (≈ 2.06 µg/mL); MIC90 ([1]; 11 MRSA strains): 4 µM (≈ 2.06 µg/mL); MBC ([1]; MRSA NRS 1): 4 µM (≈ 2.06 µg/mL); MIC ([1]; MRSA NRS 1): 4 µM (≈ 2.06 µg/mL); MBC ([1]; MRSA NRS 19): 4 µM (≈ 2.06 µg/mL); MIC ([1]; MRSA NRS 19): 4 µM (≈ 2.06 µg/mL); MBC ([1]; MRSA NRS 37): 4 µM (≈ 2.06 µg/mL); MIC ([1]; MRSA NRS 37): 4 µM (≈ 2.06 µg/mL); MBC ([1]; MRSA NRS 107): 16 µM (≈ 8.23 µg/mL); MIC ([1]; MRSA NRS 107): 8 µM (≈ 4.12 µg/mL); MBC ([1]; MRSA NRS 119): 4 µM (≈ 2.06 µg/mL); MIC ([1]; MRSA NRS 119): 4 µM (≈ 2.06 µg/mL); MBC ([1]; MRSA NRS 382): 4 µM (≈ 2.06 µg/mL); MIC ([1]; MRSA NRS 382): 4 µM (≈ 2.06 µg/mL); MBC ([1]; MRSA NRS 383): 4 µM (≈ 2.06 µg/mL); MIC ([1]; MRSA NRS 383): 4 µM (≈ 2.06 µg/mL); MBC ([1]; MRSA NRS 384): 16 µM (≈ 8.23 µg/mL); MIC ([1]; MRSA NRS 384): 4 µM (≈ 2.06 µg/mL); MBC ([1]; MRSA NRS 385): 4 µM (≈ 2.06 µg/mL); MIC ([1]; MRSA NRS 385): 4 µM (≈ 2.06 µg/mL); MBC ([1]; MRSA NRS 386): 8 µM (≈ 4.12 µg/mL); MIC ([1]; MRSA NRS 386): 4 µM (≈ 2.06 µg/mL); MBC ([1]; MRSA NRS 387): 4 µM (≈ 2.06 µg/mL); MIC ([1]; MRSA NRS 387): 4 µM (≈ 2.06 µg/mL); MBC ([2]; E. faecalis ERV103 HM-934): 4 µM (≈ 2.06 µg/mL); MIC ([2]; E. faecalis ERV103 HM-934): 4 µM (≈ 2.06 µg/mL); MBC [2, 7]: 32 µM (≈ 16.5 µg/mL); MIC [2, 7]: 4 µM (≈ 2.06 µg/mL); MBC ([2]; E. faecalis R712 HM-335): 4 µM (≈ 2.06 µg/mL); MIC ([2]; E. faecalis R712 HM-335): 4 µM (≈ 2.06 µg/mL); MBC ([2]; E. faecalis S613 HM-334): 4 µM (≈ 2.06 µg/mL); MIC ([2]; E. faecalis S613 HM-334): 4 µM (≈ 2.06 µg/mL); MBC ([2]; E. faecalis TX0104 HM-201): 4 µM (≈ 2.06 µg/mL); MIC ([2]; E. faecalis TX0104 HM-201): 4 µM (≈ 2.06 µg/mL); MIC (Acinetobacter baumannii; Acinetobacter baumannii ATCC BAA747, PMBN (+) 4 μg/mL, read-out: MIC): >64 µM; MIC (Acinetobacter baumannii; Acinetobacter baumannii ATCC BAA19606, PMBN (+) 4 μg/mL, read-out: MIC): >64 µM; MIC (Acinetobacter baumannii; Acinetobacter baumannii, ATCCBAA747): > 128 µM; MIC (Acinetobacter baumannii; Acinetobacter baumannii, ATCCBAA19606): > 128 µM; MIC50 ([3]; 15 VRSA strains, read-out: MIC 50): 4 µM (≈ 2.06 µg/mL); MIC90 ([3]; 15 VRSA strains, read-out: MIC 90): 4 µM (≈ 2.06 µg/mL); MBC ([3]; VRSA 1, read-out: MBC): 8 µM (≈ 4.12 µg/mL); MIC ([3]; VRSA 1, read-out: MIC): 4 µM (≈ 2.06 µg/mL); MBC ([3]; VRSA 2, read-out: MBC): 4 µM (≈ 2.06 µg/mL); MIC ([3]; VRSA 2, read-out: MIC): 4 µM (≈ 2.06 µg/mL); MBC ([3]; VRSA 3a, read-out: MBC): 16 µM (≈ 8.23 µg/mL); MIC ([3]; VRSA 3a, read-out: MIC): 4 µM (≈ 2.06 µg/mL); MBC ([3]; VRSA 3b, read-out: MBC): 4 µM (≈ 2.06 µg/mL); MIC ([3]; VRSA 3b, read-out: MIC): 4 µM (≈ 2.06 µg/mL); MBC ([3]; VRSA 4, read-out: MBC): 4 µM (≈ 2.06 µg/mL); MIC ([3]; VRSA 4, read-out: MIC): 4 µM (≈ 2.06 µg/mL); MBC ([3]; VRSA 5, read-out: MBC): 64 µM (≈ 32.9 µg/mL); MIC ([3]; VRSA 5, read-out: MIC): 4 µM (≈ 2.06 µg/mL); MBC ([3]; VRSA 6, read-out: MBC): 16 µM (≈ 8.23 µg/mL); MIC ([3]; VRSA 6, read-out: MIC): 4 µM (≈ 2.06 µg/mL); MBC ([3]; VRSA 7, read-out: MBC): 32 µM (≈ 16.5 µg/mL); MIC ([3]; VRSA 7, read-out: MIC): 4 µM (≈ 2.06 µg/mL); MBC ([3]; VRSA 8, read-out: MBC): 8 µM (≈ 4.12 µg/mL); MIC ([3]; VRSA 8, read-out: MIC): 4 µM (≈ 2.06 µg/mL); MBC ([3]; VRSA 9, read-out: MBC): 32 µM (≈ 16.5 µg/mL); MIC ([3]; VRSA 9, read-out: MIC): 8 µM (≈ 4.12 µg/mL); MBC ([3]; VRSA 10, read-out: MBC): 32 µM (≈ 16.5 µg/mL); MIC ([3]; VRSA 10, read-out: MIC): 4 µM (≈ 2.06 µg/mL); MBC ([3]; VRSA 11a, read-out: MBC): 4 µM (≈ 2.06 µg/mL); MIC ([3]; VRSA 11a, read-out: MIC): 4 µM (≈ 2.06 µg/mL); MBC ([3]; VRSA 11b, read-out: MBC): 64 µM (≈ 32.9 µg/mL); MIC ([3]; VRSA 11b, read-out: MIC): 4 µM (≈ 2.06 µg/mL); MBC ([3]; VRSA 12, read-out: MBC): 32 µM (≈ 16.5 µg/mL); MIC ([3]; VRSA 12, read-out: MIC): 4 µM (≈ 2.06 µg/mL); MBC ([3]; VRSA 13, read-out: MBC): 64 µM (≈ 32.9 µg/mL); MIC ([3]; VRSA 13, read-out: MIC): 4 µM (≈ 2.06 µg/mL); MBC ([4]; E. faecium E417 HM-965): 64 µM (≈ 32.9 µg/mL); MIC ([4]; E. faecium E417 HM-965): 4 µM (≈ 2.06 µg/mL); MBC ([4]; E. faecium E1071 NR-28978): 64 µM (≈ 32.9 µg/mL); MIC ([4]; E. faecium E1071 NR-28978): 8 µM (≈ 4.12 µg/mL); MBC [4, 8]: 64 µM (≈ 32.9 µg/mL); MIC [4, 8]: 4 µM (≈ 2.06 µg/mL); MBC [4, 9]: 32 µM (≈ 16.5 µg/mL); MIC [4, 9]: 4 µM (≈ 2.06 µg/mL); MBC [4, 10]: 64 µM (≈ 32.9 µg/mL); MIC [4, 10]: 4 µM (≈ 2.06 µg/mL); MIC (Escherichia coli O157:H7; Escherichia coli O157:H7 ATCC 35150, colistin (+) […], read-out: MIC): >64 µM; MIC (Escherichia coli O157:H7; Escherichia coli O157:H7 ATCC 700728, colistin (+) […], read-out: MIC): >64 µM; MIC (Escherichia coli O157:H7; Escherichia coli, ATCC35150): > 128 µM; MIC (Escherichia coli O157:H7; Escherichia coli, ATCC700728): > 128 µM; MBC (Bacillus anthracis; Bacillus anthracis AMES35): 2 µM (≈ 1.03 µg/mL); MIC (Bacillus anthracis; Bacillus anthracis AMES35): 2 µM (≈ 1.03 µg/mL); MBC (Bacillus anthracis; Bacillus anthracis UM23): 2 µM (≈ 1.03 µg/mL); MIC (Bacillus anthracis; Bacillus anthracis UM23): 2 µM (≈ 1.03 µg/mL); MBC (Bacillus anthracis; Bacillus anthracis Weybridge): 2 µM (≈ 1.03 µg/mL); MIC (Bacillus anthracis; Bacillus anthracis Weybridge): 2 µM (≈ 1.03 µg/mL); MIC (Candida albicans; ATCC10231, C. albicans ATCC 10231, unit from abstract): > 64 µM; MIC (Candida albicans; C. albicans NR 29434, unit from abstract): > 64 µM; MIC (Candida albicans; C. albicans NR 29435, unit from abstract): > 64 µM; MIC (Candida albicans; C. albicans NR29437, unit from abstract): > 64 µM; MIC (Candida albicans; C. albicans NR29438, unit from abstract): > 64 µM; MIC (Candida albicans; C. albicans NR 29446, unit from abstract): > 64 µM; MIC (Candida albicans; C. albicans NR 29448, unit from abstract): > 64 µM; MIC (Candida albicans; C. albicans NR 29449, unit from abstract): > 64 µM; MIC (Candida albicans; C. albicans NR 29453, unit from abstract): > 64 µM; MIC (Candida albicans; C. albicans NR 294436, unit from abstract): > 64 µM; MIC [5]: 4 µM (≈ 2.06 µg/mL); MIC (Klebsiella pneumoniae; Klebsiella pneumoniae ATCC BAA 1706, PMBN (+) 4 μg/mL): >64 µM; MIC (Klebsiella pneumoniae; Klebsiella pneumoniae ATCC BAA 2146, PMBN (+) 4 μg/mL): >64 µM; MIC (Klebsiella pneumoniae; Klebsiella pneumoniae, BAA1706): > 128 µM; MIC (Klebsiella pneumoniae; Klebsiella pneumoniae, BAA2146): > 128 µM; MIC (K. pneumoniae; K. pneumoniae NR-15417): >128 µM; MIC (K. pneumoniae; Klebsiella pneumoniae): > 128 µM; biofilm mass reduction ([6]; at 4 times its MIC): more than 35%; biofilm mass reduction ([6]; at 8 times its MIC): > 45%
